According to ChEMBL document CHEMBL5678796, “A highly potent and selective farnesyltransferase inhibitor ABT-100 in preclinical studies” (Anticancer Drugs, 2005):

Key:
[1] = Inhibition of recombinant bovine FTase incubated for 30 mins in presence of [3H]FPP by SPA based Topcount scintillation plate reader analysis; design: species or system Bos taurus
[2] = Inhibition of recombinant human FTase incubated for 30 mins in presence of [3H]FPP by SPA based Topcount scintillation plate reader analysis
[3] = Inhibition of recombinant bovine GGTase I incubated for 30 min sin presence of [3H]FPP by SPA based Topcount scintillation plate reader analysis; design: species or system Bos taurus
[4] = system: NIH3T3; experiment: Inhibition of anchorage-independent growth in H-Ras transformed mouse NIH3T3 cells assessed as inhibition of colony formation incubated for 14 days in presence of 10% bovine serum by imaging based soft agar colony formation assay; type: functional, cell-based; conditions: NIH3T3, 336 h
[5] = system: HCT-116; experiment: Inhibition of anchorage-independent growth in human HCT-116 cells assessed as inhibition of colony formation incubated for 14 days in presence of 10% FBS by imaging based soft agar colony formation assay; type: functional, cell-based; conditions: HCT-116, 336 h
[6] = system: HCT-116; experiment: Antitumor activity against human HCT-116 cells xenografted in nu/nu CD1 mouse assessed as tumor volume at 100 mg/kg, sc preinoculated with cells for 5 days followed by twice daily compound administration for 21 days and measured on day 22 (reference value: 1436 +/- 263 mm^3); type: functional; conditions: time 22 day
[7] = system: HCT-116; experiment: Antitumor activity against human HCT-116 cells xenografted in nu/nu CD1 mouse assessed as reduction in tumor volume by measuring test to control ratio at 100 mg/kg, sc preinoculated with cells for 5 days followed by twice daily compound administration for 21 days and measured on day 22; type: functional; conditions: time 22 day
[8] = system: HCT-116; experiment: Antitumor activity against human HCT-116 cells xenografted in nu/nu CD1 mouse assessed as increase in life span at 100 mg/kg, sc preinoculated with cells for 5 days followed by twice daily compound administration for 21 days and measured on day 22 relative to vehicle in time to 1 cm3 tumor; type: functional; conditions: HCT-116, 528 h, time 22 day
[9] = Inhibition of FTase in H-Ras transformed mouse NIH3T3 cells using Ras as substrate assessed as inhibition of substrate prenylation in presence of 10% bovine serum by immunoblot analysis; type: cell-based
[10] = Inhibition of GGTase in H-Ras transformed mouse NIH3T3 cells using Rap 1A as substrate assessed as inhibition of substrate prenylation in presence of 10% bovine serum by immunoblot analysis; type: cell-based
[11] = Inhibition of FTase in human HCT-116 cells expressing low level of P-gp1 using Ras as substrate assessed as inhibition of substrate post-translation processing in presence of 10% FBS by immunoblot analysis; type: cell-based
[12] = Inhibition of FTase in human HCT-116 cells expressing low level of P-gp1 using Ras as substrate assessed as inhibition of substrate post-translation processing in presence of 20% human serum by immunoblot analysis; type: cell-based
[13] = Inhibition of FTase in human DLD-1 cells expressing moderate level of P-gp1 using Ras as substrate assessed as inhibition of substrate post-translation processing in presence of 10% FBS by immunoblot analysis; type: cell-based
[14] = Inhibition of FTase in human DLD-1 cells expressing moderate level of P-gp1 using Ras as substrate assessed as inhibition of substrate post-translation processing in presence of 10% human serum by immunoblot analysis; type: cell-based
[15] = Inhibition of FTase in human HCT-15 cells expressing high level of P-gp1 using Ras as substrate assessed as inhibition of substrate post-translation processing in presence of 10% FBS by immunoblot analysis; type: cell-based
[16] = Inhibition of FTase in human HCT-15 cells expressing high level of P-gp1 using Ras as substrate assessed as inhibition of substrate post-translation processing in presence of 20% human serum by immunoblot analysis; type: cell-based
[17] = Ratio of EC50 for inhibition of FTase in human HCT-116 cells expressing low level of P-gp1 using Ras as substrate assessed as inhibition of substrate post-translation processing in presence of 20% human serum to EC50 for inhibition of FTase in human HCT-116 cells expressing low level of P-gp1 using Ras as substrate assessed as inhibition of substrate post-translation processing in presence of 10% …; conditions: condition cancer
[18] = Ratio of EC50 for inhibition of FTase in human DLD-1 cells expressing moderate level of P-gp1 using Ras as substrate assessed as inhibition of substrate post-translation processing in presence of 20% human serum to EC50 for inhibition of FTase in human DLD-1 cells expressing moderate level of P-gp1 using Ras as substrate assessed as inhibition of substrate post-translation processing in presence …; conditions: condition cancer
[19] = Ratio of EC50 for inhibition of FTase in human HCT-15 cells expressing high level of P-gp1 using Ras as substrate assessed as inhibition of substrate post-translation processing in presence of 20% human serum to EC50 for inhibition of FTase in human HCT-15 cells expressing high level of P-gp1 using Ras as substrate assessed as inhibition of substrate post-translation processing in presence of 10% …; conditions: condition cancer
[20] = system: HCT-116; experiment: Antitumor activity against human HCT-116 cells xenografted in nu/nu CD1 mouse assessed as increase in life span at 50 mg/kg, ip preinoculated with cells for 14 days followed by once every 4 days compound administration for 4 times and measured on day 40 relative to vehicle in time to 1 cm^3 tumor; type: functional; conditions: HCT-116, 960 h, time 40 day
[21] = Inhibition of FTase (unknown origin); design: species or system Homo sapiens
[22] = system: NIH3T3; experiment: Inhibition of anchorage-independent growth in H-Ras transformed mouse NIH3T3 cells assessed as inhibition of colony formation in presence of 10% bovine serum; type: functional, cell-based
[23] = system: HCT-116; experiment: Inhibition of anchorage-independent growth in human HCT-116 cells assessed as inhibition of colony formation in presence of 10% FBS; type: functional, cell-based
[24] = system: HCT-116; experiment: Antitumor activity against human HCT-116 cells xenografted in nu/nu CD1 mouse assessed as tumor volume at 30 mg/kg, ip preinoculated with cells for 5 days followed by once every 3 days compound administration for 4 times and measured on day 22 (reference value: 1861 +/- 410 mm^3); type: functional; conditions: time 22 day
[25] = system: HCT-116; experiment: Antitumor activity against human HCT-116 cells xenografted in nu/nu CD1 mouse assessed as reduction in tumor volume by measuring test to control ratio at 30 mg/kg, ip preinoculated with cells for 5 days followed by once every 3 days compound administration for 4 times and measured on day 22; type: functional; conditions: time 22 day
[26] = system: HCT-116; experiment: Antitumor activity against human HCT-116 cells xenografted in nu/nu CD1 mouse assessed as increase in life span at 30 mg/kg, ip preinoculated with cells for 5 days followed by once every 3 days compound administration for 4 times and measured on day 22 relative to vehicle in time to 1 cm3 tumor; type: functional; conditions: HCT-116, 528 h, time 22 day

Row | SMILES | IC50 [1] [nM] | IC50 [2] [nM] | IC50 [3] [nM] | EC50 [4] [nM] | EC50 [5] [nM] | EC50 [9] [nM] | EC50 [10] [nM] | EC50 [11] [nM] | EC50 [12] [nM] | EC50 [13] [nM] | EC50 [14] [nM] | EC50 [15] [nM] | EC50 [16] [nM] | Ratio EC50 [17] | Ratio EC50 [18] | Ratio EC50 [19] | also measured
1 | Cn1cncc1[C@@](N)(c1ccc(Cl)cc1)c1ccc2c(c1)c(-c1cccc(Cl)c1)cc(=O)n2C [TIPIFARNIB] | 57 | 0.45 | 1040 | 3.7 | 24 | 2.3 | > 30000 | 0.98 | 6.7 | 0.69 | 3.1 | 0.55 | 4.9 | 4.4 | 4.4 | 4.4 | Activity [6]: 820 mm3; T/C [7]: 56%; ILS at 100 mg/kg [8]: 39%
2 | CCc1c2c(nc3ccc(OC(=O)N4CCC(N5CCCCC5)CC4)cc13)-c1cc3c(c(=O)n1C2)COC(=O)[C@]3(O)CC [IRINOTECAN] |  |  |  |  |  |  |  |  |  |  |  |  |  |  |  |  | ILS at 50 mg/kg [20]: 200%
3 | Cn1cncc1C(O)(COc1ccc(C#N)cc1-c1ccc(OC(F)(F)F)cc1)c1ccc(C#N)cc1 (stereo not drawn) |  |  |  |  |  | 2 |  |  |  |  |  |  |  |  |  |  | EC50 [21]: 0.6 nM
4 | NC(=O)N1CCC(CC(=O)N2CCC([C@H]3c4ncc(Br)cc4CCc4cc(Cl)cc(Br)c43)CC2)CC1 [LONAFARNIB] | 7.8 | 4.9 | > 10000 | 56 | 94 | 160 | > 30000 | 16 | 49 | 12 | 23 | 37 | 210 | 1.9 | 1.9 | 1.9 | EC50 [22]: 50 nM; EC50 [23]: 74 nM
5 | Nc1ccn([C@@H]2O[C@H](CO)[C@@H](O)C2(F)F)c(=O)n1 [GEMCITABINE] |  |  |  |  |  |  |  |  |  |  |  |  |  |  |  |  | Activity [24]: 359 mm3; T/C [25]: 22%; ILS at 30 mg/kg [26]: 112%
